From publication PMC11882969 (Nature Communications, 2025)
Where “and” joins values, the source holds several entries; their conditions need not be identical. Equal values may be shown once.

What was measured:
[1] = target: T1, hCB1 (Homo sapiens, UniProt P21554); experiment: Lance Ultra cAMP accumulation assay, CHO cells; assay type: cell-based; set-up: expressed in transfected cells; conditions: for normalised cAMP response, concentration-response (Figure2f), replicate values: log[Compound;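 for all read-outs here: human CB1R stably expressed in CHO cells, ligands co-incubated with forskolin at room temperature, read-out is lowering of forskolin-stimulated cAMP accumulation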
T1 sequence (P21554 whole entry): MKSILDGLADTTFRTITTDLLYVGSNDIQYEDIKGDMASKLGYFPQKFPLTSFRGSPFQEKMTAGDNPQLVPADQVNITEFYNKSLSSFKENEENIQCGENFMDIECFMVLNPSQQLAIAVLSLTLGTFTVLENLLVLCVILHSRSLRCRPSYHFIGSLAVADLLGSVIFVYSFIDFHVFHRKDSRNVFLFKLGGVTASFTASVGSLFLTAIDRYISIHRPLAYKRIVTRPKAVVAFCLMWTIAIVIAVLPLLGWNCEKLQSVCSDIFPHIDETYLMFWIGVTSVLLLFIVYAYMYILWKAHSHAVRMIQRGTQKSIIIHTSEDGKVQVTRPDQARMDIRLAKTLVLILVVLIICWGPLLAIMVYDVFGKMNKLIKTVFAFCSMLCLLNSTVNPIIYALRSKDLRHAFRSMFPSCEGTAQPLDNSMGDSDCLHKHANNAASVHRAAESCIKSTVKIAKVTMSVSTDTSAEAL
Description: The inhibition of forskolin-stimulated cAMP accumulation assays was carried out using PerkinElmer’s Lance Ultra cAMP kit following the manufacturer’s protocol. In brief, CHO cells stably expressing human CB1R (provided by the lab of Laura Bohn) were harvested by incubation with Versene (ThermoFisher Scientific, Waltham, MA) for 10 min, washed once with Hank’s Balanced Salt Solution, and resuspended in stimulation buffer at ~200 cells/μL density. The ligands at eight different concentrations (0.001-10,000 nM) in stimulation buffer (5 μL) containing forskolin (2 μM final concentration) were added to a 384-well plate followed by the cell suspension (5 μL; ~1000 cells/well). The plate was incubated for 30 min at room temperature. Eu-cAMP tracer (5 μL) and Ulight-anti-cAMP (5 μL) working solutions were then added to each well, and the plate was incubated at room temperature for an additional 60 min. Results were measured on a Perkin-Elmer EnVision plate reader. The EC50 values were determined by nonlinear regression analysis using Graphpad Prism 9 and are expressed as the mean of three experiments, each performed in triplicate.

[2] = target: T1, hCB1; experiment: bioSensAll ebBRET signaling profiling, hCB1; assay type: cell-based; set-up: host or cells: HEK293SL cells, transient PEI transfection; conditions: for Gi1 hCB1 response: Gi1 biosensor; for Gi1 hCB1 / GoB hCB1: single replicate values, FigS6a

Structure (SMILES): COC(=O)C(NC(=O)c1cc(C)n(-c2cccc(C(F)(F)F)c2)n1)c1cccs1 (centres unmarked) [‘60154]
- EC50 [1]: 351 nM
- Lance Ultra cAMP pEC50 [1]: 6.5 [7.0]
- Emax ([1]; CHO): 67%
- normalised cAMP response, concentration-response (Figure2f), replicate values ([1]; M] -5): 47.6767 and 42.0056 and 42.3397
- normalised cAMP response, concentration-response (Figure2f), replicate values ([1]; M] -6): 18.5649 and 64.1261 and 62.9313 and 54.4312
- normalised cAMP response, concentration-response (Figure2f), replicate values ([1]; M] -7): 60.7575 and 85.7016 and 74.1727 and 91.7418
- normalised cAMP response, concentration-response (Figure2f), replicate values ([1]; M] -8): 71.1204 and 91.8821 and 99.3075 and 104.869
- normalised cAMP response, concentration-response (Figure2f), replicate values ([1]; M] -9): 80.377 and 105.423 and 95.8256 and 102.017
- normalised cAMP response, concentration-response (Figure2f), replicate values ([1]; M] -10): 87.3077 and 96.5214 and 96.3615 and 92.9435
- normalised cAMP response, concentration-response (Figure2f), replicate values ([1]; M] -11): 91.1852 and 100.567 and 97.003 and 102.336
- normalised cAMP response, concentration-response (Figure2f), replicate values ([1]; M] -12): 91.9633 and 106.344 and 93.1819 and 97.7717
- Gi1 hCB1 response ([2]; Log [Compound] (M) -4.22186): 135.687
- Gi1 hCB1 response ([2]; Log [Compound] (M) -4.63927): 128.615
- Gi1 hCB1 response ([2]; Log [Compound] (M) -5.05788): 93.8563
- Gi1 hCB1 response ([2]; Log [Compound] (M) -5.47381): 94.0353
- Gi1 hCB1 response ([2]; Log [Compound] (M) -5.89285): 102.272
- Gi1 hCB1 response ([2]; Log [Compound] (M) -6.31878): 90.7452
- Gi1 hCB1 response ([2]; Log [Compound] (M) -6.72585): 85.0156
- Gi1 hCB1 response ([2]; Log [Compound] (M) -7.14267): 90.8795
- Gi1 hCB1 response ([2]; Log [Compound] (M) -7.55284): 57.4417
- Gi1 hCB1 response ([2]; Log [Compound] (M) -8): 57.3074
- Gi1 hCB1 response ([2]; Log [Compound] (M) -8.22186): 41.0808
- Gi1 hCB1 response ([2]; Log [Compound] (M) -8.39794): 29.6663
- Gi1 hCB1 response ([2]; Log [Compound] (M) -8.68787): 9.254
- Gi1 hCB1 response ([2]; Log [Compound] (M) -9.15521): -1.31
- Gi1 hCB1 response ([2]; Log [Compound] (M) -9.61989): -12.1646
- Gi1 hCB1 response ([2]; Log [Compound] (M) -10.0969): 3.838
- Gi1 hCB1 response ([2]; Log [Compound] (M) -10.5529): 8.852
- Gi1 hCB1 response ([2]; Log [Compound] (M) -11.0177): -14.1566
- Gi1 hCB1 response ([2]; Log [Compound] (M) -11.4949): -8.897
- Gi1 hCB1 response ([2]; Log [Compound] (M) -11.9208): 6.613
- Gi1 hCB1 response ([2]; Log [Compound] (M) -12.3979): -8.651
- Gi1 hCB1 response ([2]; Log [Compound] (M) -12.8861): -7.89
- Gi1 hCB1 response ([2]; Log [Compound] (M) -13, individual replicate values): -1.847 and -6.9945
- Gi1 hCB1 ([2]; Log [Compound] (M) -4.22186): 97.0901
- GoB hCB1 ([2]; Log [Compound] (M) -4.22186): 92.7297
- Gi1 hCB1 ([2]; Log [Compound] (M) -4.63927): 95.1785
- GoB hCB1 ([2]; Log [Compound] (M) -4.63927): 96.2724
- Gi1 hCB1 ([2]; Log [Compound] (M) -5.05788): 93.4672
- GoB hCB1 ([2]; Log [Compound] (M) -5.05788): 98.1786
- Gi1 hCB1 ([2]; Log [Compound] (M) -5.47381): 90.2143
- GoB hCB1 ([2]; Log [Compound] (M) -5.47381): 107.08
- Gi1 hCB1 ([2]; Log [Compound] (M) -5.89285): 87.9019
- GoB hCB1 ([2]; Log [Compound] (M) -5.89285): 95.1574
- Gi1 hCB1 ([2]; Log [Compound] (M) -6.31878): 75.1986
- GoB hCB1 ([2]; Log [Compound] (M) -6.31878): 99.5993
- Gi1 hCB1 ([2]; Log [Compound] (M) -6.72585): 72.9632
- GoB hCB1 ([2]; Log [Compound] (M) -6.72585): 94.8877
- Gi1 hCB1 ([2]; Log [Compound] (M) -7.14267): 69.0474
- GoB hCB1 ([2]; Log [Compound] (M) -7.14267): 78.6487
- Gi1 hCB1 ([2]; Log [Compound] (M) -7.55284): 54.4325
- GoB hCB1 ([2]; Log [Compound] (M) -7.55284): 63.3449
- Gi1 hCB1 ([2]; Log [Compound] (M) -8): 27.0835
- GoB hCB1 ([2]; Log [Compound] (M) -8): 30.6512
- Gi1 hCB1 ([2]; Log [Compound] (M) -8.22186): 23.9076
- GoB hCB1 ([2]; Log [Compound] (M) -8.22186): 16.822
- Gi1 hCB1 ([2]; Log [Compound] (M) -8.39794): 14.1027
- GoB hCB1 ([2]; Log [Compound] (M) -8.39794): 15.743
- Gi1 hCB1 ([2]; Log [Compound] (M) -8.68787): 6.5794
- GoB hCB1 ([2]; Log [Compound] (M) -8.68787): 4.5753
- Gi1 hCB1 ([2]; Log [Compound] (M) -9.15521): 2.17
- GoB hCB1 ([2]; Log [Compound] (M) -9.15521): -0.7658
- Gi1 hCB1 ([2]; Log [Compound] (M) -9.61989): 0.08902
- GoB hCB1 ([2]; Log [Compound] (M) -9.61989): 0.7808
- Gi1 hCB1 ([2]; Log [Compound] (M) -10.0969): -0.8206
- GoB hCB1 ([2]; Log [Compound] (M) -10.0969): -0.1723
- Gi1 hCB1 ([2]; Log [Compound] (M) -10.5529): 0.8599
- GoB hCB1 ([2]; Log [Compound] (M) -10.5529): -2.762
